US11207312B2, “Metallo-beta-lactamase inhibitors and methods of use thereof” (priority 2017, dated 2021)

Tests used:
[1] = tested on: P. aeruginosa MB9799 (efflux-, IMP-1 plasmid); assay type: cell-based, Pseudomonas aeruginosa; conditions: efflux − (MB9799) strain; imipenem at 2 μg/mL; in the presence of a class A, C, D serine β-lactamase inhibitor closely related to relebactam
In short: (§1)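 Isogenic P. aeruginosa PAO1 strains (efflux+ and multiple-efflux-pump-disrupted) carrying plasmid IMP-1, with inducible AmpC, tested by broth microdilution. Imipenem and/or ceftazidime fixed, usually at CLSI breakpoint, plus fixed class A/C β-lactamase inhibitor; titrated MBL inhibitor concentration restoring susceptibility recorded and compared between strains as efflux fold difference.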

VIM-2 = VIM-2 (Escherichia coli, UniProt Q5U7L7); experiment: biochemical; conditions: CCF2-FA fluorescence assay; read-out: VIM2 IC50
IMP-1 = IMP-1 (Serratia marcescens, UniProt P52699); experiment: biochemical; conditions: CCF2-FA fluorescence assay, 2 hours at 25° C.; read-out: IMP1 IC50
IMP-1, sequence (P52699 whole entry, looked up, species assumed): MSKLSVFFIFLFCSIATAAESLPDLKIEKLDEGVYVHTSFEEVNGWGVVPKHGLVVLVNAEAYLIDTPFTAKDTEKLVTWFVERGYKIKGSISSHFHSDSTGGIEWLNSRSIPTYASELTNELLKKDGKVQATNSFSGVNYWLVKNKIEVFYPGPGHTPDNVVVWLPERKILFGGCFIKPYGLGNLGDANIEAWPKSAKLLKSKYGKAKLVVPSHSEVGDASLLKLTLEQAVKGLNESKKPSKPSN
In short: (§2)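 Metallo-β-lactamase activity read by fluorescence against CCF2-FA (1.25 μM final) in 100 mM KH2PO4 pH 7 with 0.005% Tween-20 and 10 μM ZnSO4; enzyme final at 1 pM NDM-1, 2 pM IMP-1 or 30 pM VIM-1. Inhibitor at 20 to 0.00063 μM, 2 h at 25° C; IC50 by 4-parameter fit.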

VIM-1 = VIM-1 (Pseudomonas aeruginosa (strain ATCC 15692 / DSM 22644 / CIP 104116 / JCM 14847 / LMG 12228 / 1C / PRS 101 / PAO1), UniProt A0A0F7KYQ8); experiment: biochemical; conditions: CCF2-FA fluorescence assay, 2 hours at 25° C.; read-out: VIM1 IC50
In short: as §2

[2] = tested on: P. aeruginosa MB9798 (efflux+, IMP-1 plasmid); conditions: for MB9798 MITC95 P. aeruginosa uM Efflux WT: efflux + (MB9798) strain, imipenem at 2 μg/mL, in the presence of a class A, C, D serine β-lactamase inhibitor closely related to relebactam; for Efflux ratio: fold difference between efflux+ (MB9798) and efflux− (MB9799) strains
In short: as §1

NDM-1 = NDM-1 (Klebsiella pneumoniae, UniProt C7C422); experiment: biochemical; assay type: biochemical; conditions: CCF2-FA fluorescence assay, 2 hours at 25° C.
NDM-1, sequence (C7C422 whole entry, looked up, species assumed): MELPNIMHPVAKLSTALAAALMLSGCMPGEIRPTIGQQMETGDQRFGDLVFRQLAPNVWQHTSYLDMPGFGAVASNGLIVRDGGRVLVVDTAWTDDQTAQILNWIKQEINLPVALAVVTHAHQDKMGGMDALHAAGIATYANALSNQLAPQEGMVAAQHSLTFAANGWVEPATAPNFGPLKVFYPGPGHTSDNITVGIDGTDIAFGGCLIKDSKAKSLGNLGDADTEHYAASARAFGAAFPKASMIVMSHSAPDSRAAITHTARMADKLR
In short: as §2

[3] = tested on: Serratia marcescens expressing IMP-1 (CL5741); assay type: cell-based; conditions: with imipenem 1 μg/ml; 95% inhibition of bacterial growth
In short: (§3)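 Clinical MBL-producing strains grown overnight at 35° C, diluted 1:100 into CAMHB, then exposed to test compound with imipenem at 1 μg/ml for 22–24 h at 35° C. Absorbance read-out; MITC95 is the lowest compound concentration giving 95% growth inhibition with imipenem.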

[4] = tested on: Klebsiella pneumoniae expressing VIM-1 (IHMA599644); assay type: cell-based; conditions: with imipenem 1 μg/ml; 95% inhibition of bacterial growth
In short: as §3

[5] = tested on: Escherichia coli expressing NDM-1 (CLB30016); assay type: cell-based; conditions: with imipenem 1 μg/ml; 95% inhibition of bacterial growth
In short: as §3

Structure (SMILES)	MB9799 MITC95 P. aeruginosa uM Efflux Mutant [1]	IC50 (VIM-2)	IC50 (IMP-1)	IC50 (VIM-1)	MB9798 MITC95 P. aeruginosa uM Efflux WT [2]	Efflux ratio [2]	IC50 (NDM-1)	CL5741 S. marcescens MITC95 IMP [3]	IHMA599644 K. pneumoniae MITC95 VIM [4]	CLB30016 E. coli MITC95 NDM [5]
NC[C@@H](O)CNS(=O)(=O)c1ccc(N2CCC[C@@H](NCCO)C2)c(-c2nn[nH]n2)c1S(N)(=O)=O [Example 130, N1-((R)-3-amino-2-hydroxypropyl)-4-((R)-3-((2-hydroxyethyl)amino)piperidin-1-yl)-3-(2H-tetrazol-5-yl)benzene-1,2-disulfonamide bis(2,2,2-trifluoroacetate)]	3.13 µM	5.47 nM	128 nM	4.21 nM	12.50 µM	4.00	32 nM	3.13 µM	1.56 µM	0.78 µM
CC1(O)CCN(c2ccc(S(=O)(=O)N[C@@H]3CCNC3)c(S(N)(=O)=O)c2-c2nnn[nH]2)CC1 [Example 71, 4-(4-hydroxy-4-methylpiperidin-1-yl)-N1-[(3R)-pyrrolidin-3-yl]-3-(1H-tetrazol-5-yl)benzene-1,2-disulfonamide]	1.56 µM	1.69 nM	0.7 nM	0.53 nM	1.56 µM	1.00	0.26 nM	3.13 µM	6.25 µM	3.13 µM
NC[C@@H](O)CNS(=O)(=O)c1ccc(N2CC[C@H](CN)[C@@H](F)C2)c(-c2nn[nH]n2)c1S(N)(=O)=O (stereo in doubt) [Example 13, N^1—((R)-3-amino-2-hydroxypropyl)-4-(trans-4-(aminomethyl)-3-fluoropiperidin-1-yl)-3-(2H-tetrazol-5-yl)benzene-1,2-disulfonamide]	0.39 µM	4.12 nM	3.7 nM	0.14 nM	0.78 µM	2.00	3.01 nM	0.78 µM	0.78 µM	1.56 µM
NC[C@@H](O)CNS(=O)(=O)c1ccc(N2CCNC(CO)C2)c(-c2nn[nH]n2)c1S(N)(=O)=O (stereo partly drawn) [Example 122, N1-((R)-3-amino-2-hydroxypropyl)-4-(3-(hydroxymethyl)piperazin-1-yl)-3-(2H-tetrazol-5-yl)benzene-1,2-disulfonamide]	0.78 µM	6.86 nM	24.4 nM	3.34 nM	1.56 µM	2.00	14.3 nM	0.39 µM	0.78 µM	0.20 µM
NS(=O)(=O)c1c(S(=O)(=O)N[C@@H]2CCNC2)ccc(N2CCC(CCO)CC2)c1-c1nnn[nH]1 [Example 98, 4-[4-(2-hydroxyethyl)piperidin-1-yl]-N1-[(3R)-pyrrolidin-3-yl]-3-(1H-tetrazol-5-yl)benzene-1,2-disulfonamide]	3.13 µM	0.59 nM	0.13 nM	0.15 nM	3.13 µM	1.00	0.08 nM	6.25 µM	12.50 µM	12.50 µM
NC[C@@H](O)CNS(=O)(=O)c1ccc(N[C@H]2C[C@@H](N)C2)c(-c2nnn[nH]2)c1S(N)(=O)=O [Example 143, N1-((R)-3-amino-2-hydroxypropyl)-4-(((1s,3S)-3-aminocyclobutyl)amino)-3-(1H-tetrazol-5-yl)benzene-1,2-disulfonamide]	3.13 µM	200 nM	70.4 nM	100 nM	6.25 µM	2.00	111 nM	1.56 µM	12.50 µM	1.56 µM
